{
  "source": "paper PMC12090809",
  "about": "(Journal of Virology, 2025)",
  "key": {"[1]": {"system": "Env expressed on CH058TF-infected cells", "assay": "Binding of anti-CoRBS mAb 17b to CH058TF-infected cells after incubation with plasma from BNM-III-170-treated uninfected RMs (FACS)", "assay_type": "cell-based, HIV-1", "procedure": "Next, we assessed the ability of the plasma collected from uninfected RMs at various timepoints following BNM-III-170 administration to induce conformational changes in Env expressed on the surface of HIV-1-infected cells. Briefly, plasma was incubated with cells infected with the transmitted/founder virus CH058 (CH058TF) and the binding of the Alexa-Fluor-647-conjugated anti-CoRBS mAb 17b (whose epitope is not exposed on the “closed” Env conformation) to Env expressed on infected cells was measured by FACS (Fig. 1B).\nTo evaluate the functional activity of bioavailable BNM-III-170 in plasma, the plasma from uninfected RMs treated with BNM-III-170 was used to modulate Env conformation at the surface of infected cells. Briefly, 2 days post-infection, CEM.NKr cells infected with CH058TF were incubated with plasma from RMs (1:10 dilution), the Alexa-Fluor 647-conjugated 17b (5 µg/mL), and the AquaVivid viability dye at 37°C for 45 min. As a positive control, infected cells were incubated with 50 µM of BNM-III-170. Infected cells were then identified based on HIV-1 p24 detection as described above."}, "[2]": {"system": "SHIV AD8-EO-infected rhesus macaques", "assay": "Safety of subcutaneous BNM-III-170 dosing regimens in SHIV AD8-EO-infected RMs", "assay_type": "in vivo, Macaca mulatta", "conditions": "for Blood chemistries / Clinical signs: SHIV AD8-EO-infected RMs, one line per animal; for ALP: normal range 83–363 U/L"}, "[3]": {"system": "SHIV AD8-EO-infected rhesus macaques", "assay": "Complete blood counts and flow cytometry immunophenotyping of PBMCs in SHIV AD8-EO-infected RMs after BNM-III-170", "assay_type": "in vivo, Macaca mulatta", "procedure": "In addition to monitoring blood chemistries, complete blood counts (CBCs) were performed immediately prior to BNM-III-170 treatment and at several post-treatment timepoints (Fig. 4A). Significant increases in white blood cell counts (WBCs) were observed between 0 h and 24 h after the terminal dose of each treatment cycle (median WBCs: 7,550 and 12,595, respectively, P-value = 0.0391). This increase in WBCs was largely attributed to increases in neutrophils (median counts at 0 h vs. 24 h of 2,926 and 8,004, P-value = 0.0078) and, to a lesser extent, monocytes (median counts at 0 h vs 24 h after the terminal dose of 696 and 1,537, P-value = 0.0391). […] Of note, this lymphopenia was generally transient (Fig. S5).\nTo further investigate this observed lymphopenia, multiparameter flow cytometry was performed on PBMCs from 0 h and 24 h post-terminal dose timepoints from all treatment cycles (Fig. S6). […] While the exact cause of this non-specific lymphopenia is unknown, it may be due to depletion of lymphocytes or migration of lymphocytes to tissue; the latter explanation is more consistent with the transient nature of the lymphopenia.\nA 20-parameter flow cytometric analysis was performed on fresh PBMCs and mononuclear cells (10^6 cells) derived from LN biopsies using anti-human monoclonal Abs (mAbs), which we ([6], [58][–][60]) and others, including databases maintained by the NHP Reagent Resource (MassBiologics), have shown as being cross-reactive in RMs. […] All samples were fixed with 1% paraformaldehyde and acquired within 24 h of fixation. Acquisition of data was performed on a FACSymphony A5 (BD Biosciences) driven by FACS DiVa software and analyzed with FlowJo (version 10.7; Becton, Dickinson, and Company)."}, "[4]": {"assay": "Plasma pharmacokinetics of BNM-III-170 in SHIV AD8-EO-infected RMs (HPLC-MS/MS)", "assay_type": "in vivo, Macaca mulatta", "procedure": "Plasma concentrations of BNM-III-170 in SHIV-infected animals were measured via liquid chromatography and mass spectrometry at several timepoints following each BNM-III-170 dose for all treatment cycles."}, "[5]": {"conditions": "36 mg/kg SQ, 2 doses, dosing interval 1 day, 36 mg/kg"}, "[6]": {"conditions": "36 mg/kg SQ, 3 doses, dosing interval 3 days, 36 mg/kg"}, "[7]": {"conditions": "animal 14C013 at necropsy, 2 × 36 mg/kg SQ every 24 h"}},
  "note": "“Also recorded” adds a separate entry of the source.",
  "data": [
    {"smiles": "CNCc1ccc2c(c1)C[C@H](CN=C(N)N)[C@H]2NC(=O)C(=O)Nc1ccc(Cl)c(F)c1.O=C(O)C(F)(F)F.O=C(O)C(F)(F)F", "note": "[BNM-III-170]", "values": [
      {"measurement": "association between 17b binding and BNM-III-170 plasma concentrations", "setting": "[1]; each dose and all combined doses, Spearman correlation", "result": "positive correlation"},
      {"measurement": "effect on 17b binding to CH058TF-infected cells", "setting": "[1]; plasma from uninfected RMs, all tested doses (3–36 mg/kg SQ)", "result": "consistently shown to increase 17b binding"},
      {"measurement": "duration of residual 17b activity", "setting": "[1]; plasma from uninfected RMs, highest tested dose (36 mg/kg SQ)", "result": "up to 8 h"},
      {"measurement": "Blood chemistries", "setting": "[2]; 24 mg/kg SQ, 1 dose, 24 mg/kg", "result": "Transient elevation of CPK, troponin I"},
      {"measurement": "Blood chemistries", "setting": "[2]; [5]", "result": "Elevated AST, ALT, amylase, CPK, troponin I; also recorded: Transient elevation of ALP, CPK, troponin I"},
      {"measurement": "Clinical signs", "setting": "[2]; [5]", "result": "pale mucus membranes, weak femoral pulses, and dyspnea; also recorded: Animal experienced acute respiratory distress and tachycardia at 6 hr post dose #2 and was sacrificed; inconclusive path report, pale liver noted; also recorded: Enlarged liver and spleen, lesion at BNM-III-170 injection site"},
      {"measurement": "Blood chemistries", "setting": "[2]; [6]", "result": "Transient elevation of AST, ALT, CPK; also recorded: Elevated BUN, BUN/Cr, CPK; low potassium"},
      {"measurement": "Clinical signs", "setting": "[2]; [6]", "result": "mild erythema at the BNM-III-170 injection sites; also recorded: Animal reached endpoint criteria (weight loss > 25%) due to chronic diarrhea that started prior to CD4mc treatments, animal sacrificed 3 hr post dose #2"},
      {"measurement": "Blood chemistries", "setting": "[2]; 36 mg/kg SQ, 3 doses, dosing interval 7 days, 36 mg/kg", "result": "Transient elevation of AST, ALP, TRIG, CPK; also recorded: Transient elevation of AST, ALT, ALP, CSK; also recorded: Transient elevation of Glob, ALT, ALP, GGT, AMY, CPK"},
      {"measurement": "adverse reactions", "setting": "[2]; SHIV-infected RMs 14C056 and 34901, 1 × 24 mg/kg SQ", "result": "No adverse reactions were observed"},
      {"measurement": "clinical signs of toxicity", "setting": "[2]; SHIV-infected RMs, 36 mg/kg SQ doses at 7-day dosing interval", "result": "no clinical signs of toxicity were noted"},
      {"measurement": "ALT", "setting": "[2]; [7]", "result": 123, "unit": "U/L"},
      {"measurement": "AST", "setting": "[2]; [7]", "result": 145, "unit": "U/L"},
      {"measurement": "troponin I", "setting": "[2]; [7]", "result": 0.28, "unit": "ng/mL"},
      {"measurement": "amylase", "setting": "[2]; animal 14C013 at necropsy, 2 × 36 mg/kg SQ every 24 h, normal range 148–316 U/L", "result": 421, "unit": "U/L"},
      {"measurement": "AST", "setting": "[2]; animal 14C056, 24 h after dose 3, 36 mg/kg SQ every 3 days", "result": 109, "unit": "U/L"},
      {"measurement": "troponin I", "setting": "[2]; animal 34901, 6 h post-dose, 1 × 24 mg/kg SQ, resolved by 5 days post-treatment", "result": 0.090, "unit": "ng/mL"},
      {"measurement": "potassium", "setting": "[2]; animal 34901 at necropsy (3 h after dose 2, 36 mg/kg SQ every 3 days), 2.4 vs 2.8 at 0 h of cycle, normal range 3–5 mmol/L", "result": 2.4, "unit": "mmol/L"},
      {"measurement": "blood urea nitrogen", "setting": "[2]; animal 34901 at necropsy (3 h after dose 2, 36 mg/kg SQ every 3 days), 34 at 0 h of cycle, normal range 9–27, likely due to prolonged diarrhea", "result": 28, "unit": "mg/dL"},
      {"measurement": "ratio of blood urea nitrogen to creatinine", "setting": "[2]; animal 34901 at necropsy (3 h after dose 2, 36 mg/kg SQ every 3 days), 37.8 at 0 h of cycle, normal range 12.5–33.3", "result": 35},
      {"measurement": "troponin I", "setting": "[2]; animal RYj17, 6 h after dose 1 of 2 × 36 mg/kg SQ every 24 h, resolved by 24 h", "result": 0.049, "unit": "ng/mL"},
      {"measurement": "ALP", "setting": "[2]; animal RYj17, 24 h after dose 2 of 2 × 36 mg/kg SQ every 24 h", "result": 405, "unit": "U/L"},
      {"measurement": "ALP", "setting": "[2]; animal RYj17, 16 days later (after 24 h post dose 2), 2 × 36 mg/kg SQ every 24 h", "result": 715, "unit": "U/L"},
      {"measurement": "white blood cell counts (WBCs), median", "setting": "[3]; 24 h after terminal dose of each treatment cycle, 0 h median 7,550, P-value = 0.0391", "result": "12,595"},
      {"measurement": "monocytes, median counts", "setting": "[3]; 24 h after terminal dose, 0 h median 696, P-value = 0.0391", "result": "1,537"},
      {"measurement": "neutrophils, median counts", "setting": "[3]; 24 h after terminal dose, 0 h median 2,926, P-value = 0.0078", "result": "8,004"},
      {"measurement": "absolute numbers of NK cells, median", "setting": "[3]; 24 h post-terminal dose, 0 h median 191, P = 0.0078", "result": 48, "unit": "cells per μL blood"},
      {"measurement": "absolute numbers of CD4+ T cells, median", "setting": "[3]; 24 h post-terminal dose, 0 h median 496, P = 0.0078", "result": 283, "unit": "cells per μL blood"},
      {"measurement": "absolute numbers of CD8+ T cells, median", "setting": "[3]; 24 h post-terminal dose, 0 h median 1,084, P = 0.0078", "result": 323.5, "unit": "cells per μL blood"},
      {"measurement": "absolute numbers of B cells, median", "setting": "[3]; 24 h post-terminal dose, 0 h median 1,129, P = 0.0391", "result": "1,080 cells per μL blood"},
      {"measurement": "lymphocyte frequency in whole blood", "setting": "[3]; 24 h post-terminal dose, 49% at 0 h, P = 0.0078", "result": 19.5, "unit": "%"},
      {"measurement": "lymphocyte numbers in whole blood", "setting": "[3]; 24 h post-terminal dose, 3,774 at 0 h, P = 0.0078", "result": "2,068"},
      {"measurement": "Cmax", "setting": "[4]; SHIV AD8-EO-infected RMs, following first dose of each treatment cycle (24 or 36 mg/kg SQ)", "result": "4100 to 12800", "unit": "ng/mL"},
      {"measurement": "plasma BNM-III-170 level between doses", "setting": "[4]; SHIV-infected RMs, 36 mg/kg once every 3 days", "result": "below the limit of detection"},
      {"measurement": "plasma level 6 h after each dose", "setting": "[4]; SHIV-infected RMs, all treatment cycles, generally", "result": "> 675", "unit": "ng/mL"}
    ]}
  ]
}
